According to patent US20090317372A1, “SMALL MOLECULES FOR THE REDUCTION OF HIGH BLOOD GLUCOSE LEVEL” (priority 2008, published 2009):

How the values were obtained:
[1] = tested on: C57/BL/6 mice; test: Glucose tolerance test with normal mice, CCcompound1 and sub-optimal insulin; type: in vivo; details: CCcompound1 4.5-mg/kg i.p. 60 min and/or insulin 0.02 IU 15 min prior to glucose
Experimental: In this experiment, a sub-optimal dose of insulin (0.02 international unit-IU) was used to probe if CCcompound1 indeed can enhance the effect of insulin on blood glucose. Again C57/BL/6 female mice weighing 22-23-g and fasted for 14 hours prior to i.p. glucose administration (3-g/kg), were used. None of the animals received any food during the experiment other than glucose. The animals received i.p. injections of 4.5-mg/kg of CCcompound1 and/or 0.02 Unit insulin 60 min and 15 min prior to glucose administration, respectively. Blood samples were taken and glucose concentrations measured as indicated earlier. Each group included six animals. The data are the mean±std. dev. of 6 determinations, i.e. one determination with each of the six animals.

[2] = tested on: PC-3 human tumors; test: PC-3 tumor/cachexia model: tumor weight and body weight; type: in vivo, mice
Experimental: The experimental PC-3 human tumors were developed in a homozygous line of C.B.-171 cr scid/scid adult female mice that were kept at specified pathogen free (SPF) hygienic level. Treatments with CCcompound1 (4.5 mg/kg) were started on day 12 after tumor implantation and conducted for 5+5 days with 2 treatment-free days inserted between the 2 series of treatments. A control group (10 mice) received no treatment, while another group (10 mice) received 4.5-mg/kg of CCcompound1 once every day between days 12-24. The results, shown in TABLE 8, indicate that between days 12 and 24 after tumor implantation, the prostate tumor caused about 6.9-g loss in lean body weight (4.1-g loss in total body weight). In contrast, animals treated with CCcompound1 actually gained 6.3-g lean body weight.

[3] = tested on: ob/ob mice; test: Blood glucose level of normally fed ob/ob obese diabetic mice, daily treatment; type: in vivo; details: 4.5-mg/kg s.c. once daily
Description: Adult female leptin-deficient ob/ob obese diabetic inbred specified pathogen free (SPF) hygienic category mice from Charles River VRF1 were used for these experiments. The mice weighed 32-36-g at arrival. The ob/ob obese mouse is an extensively used animal model for the study of non-insulin-dependent-diabetes mellitus (NIDDM). The mutation was propagated in the C57BL/6J (BL/6) inbred strain. Homozygous obese (ob/ob) animals developed hyperglycemia due to insulin resistance, hyperinsulinemia (to compensate for reduced insulin action), and obesity. In these animals gluconeogenesis is enhanced despite their hyperinsulinemic state. The animals were kept in macrolon cages at 22-24° C. and 50-60% humidity, with lighting regimen of 12/12 h light dark. They had free access to tap water and were fed a sterilized standard diet (Charles River VRF1, autoclavable). The animals were cared for according to the “Guiding Principles for the Care and Use for Animals” based upon the Helsinki declaration. The ob/ob mice gained weight rapidly and developed a marked obesity by 5-6 weeks of age. […] When arrived they were 5 weeks old (when the experiment was performed with CCcompound1) or 4.5 weeks old (when the experiment was performed with CCcompound3 and CCcompound19). The treatments started 8 days later in the experiment performed with CCcompound1 and 10 days later in the experiment performed with CCcompound3 and CCcompound19. Experimental groups selected from ob/ob mice were injected subcutaneously (s.c.) at regular intervals once daily for 14 days with CCcompound1 or an analog (CCcompound3 or CCcompound19) each at the dose of 4.5-mg per kg. Control groups were also selected from ob/ob mice that remained untreated during the entire length of the experiment. In the first experiment, for which the data is presented in TABLE 11, blood samples were taken either 45 min or 6 hours after treatments with CCcompound1. In the second experiment, for which the data is presented in TABLE 12, blood samples were taken 45 min after treatments with the analogs of CCcompound1. Blood glucose was determined with the Fast Glucose C test. Both the untreated and CC compound-treated groups included 5 animals. The data are the mean±std. dev.

[4] = tested on: ob/ob mice; test: Glucose tolerance test with ob/ob mice; type: in vivo
Experimental: In this experiment, 43 days old ob/ob mice weighing 40.3±1.8-g on average were used. One group of mice (5 animals) remained untreated for the subsequent 14 days. Two other groups of mice (each including 5 animals) were treated on each day for 13 days with 4.5-mg/kg dose of CCcompound1. On the 14th day the first group received only i.p. injection of glucose (3-g/kg) (first column in TABLE 13); the second group first received s.c. injection of CCcompound1, followed six hours later by i.p. injection of glucose (3-g/kg) (second column in TABLE 13); the third group first received s.c. injection of CCcompound1, followed 45 min later by i.p. injection of glucose (3-g/kg) (third column in TABLE 13). In each case, blood was first drawn 1-5 min prior to the administration of glucose, followed by drawing blood samples at 30 min, 60 min, 120 min and 180 min. The results shown in TABLE 13 indicate that CCcompound1 can effectively lower blood glucose level even after administration of a large amount of glucose. […] This probably means that the effect of CCcompound1 on blood glucose level requires its physical presence in the circulation and is not mediated by a secondary mechanism.

[5] = 4.5 mg/kg group, day 12 (start of treatment)
[6] = 4.5 mg/kg once daily days 12-24, day 24

Cc1c(OCC(O)C[N+](C)(C)C)cc2c(=O)c3ccccc3sc2c1C.[Cl-] (centres unmarked) [CCcompound 1, [3-(3,4-Dimethyl-9-oxo-9H-thioxanthen-2-yloxy)-2-hydroxypropyl]trimethyl-ammonium chloride]
Blood glucose ([1]; 0 min): 1.8 ± 0.4 mM
Blood glucose ([1]; 30 min): 5.1 ± 0.5 mM
Blood glucose ([1]; 60 min): 4.1 ± 0.4 mM
Blood glucose ([1]; 120 min): 3.3 ± 0.3 mM
Body weight (lean) [2, 5]: 25.0 g
Tumor weight [2, 5]: 0.2 ± 0.1 g
Total weight ([2]; 4.5 mg/kg group, day 12 after tumor transplantation (start of treatment)): 25.2 ± 1.3 g
Body weight (lean) [2, 6]: 30.3 g
Total weight [2, 6]: 31.9 ± 2.5 g
Tumor weight [2, 6]: 1.6 ± 0.4 g
Gain in lean body weight ([2]; 4.5 mg/kg, between days 12 and 24): 6.3 g
Reduction of tumor volume ([2]; 4.5 mg/kg, days 12-24): ~50%
Glucose level ([3]; 45 min after treatment, day 1): 6.2 ± 0.4 mM
Glucose level ([3]; 45 min after treatment, day 4): 7.4 ± 0.3 mM
Glucose level ([3]; 45 min after treatment, day 7): 8.4 ± 0.2 mM
Glucose level ([3]; 45 min after treatment, day 11): 9.2 ± 0.3 mM
Glucose level ([3]; 45 min after treatment, day 14): 10.2 ± 0.3 mM
Glucose level ([3]; 6 hours after treatment, day 4): 11.3 ± 0.7 mM
Glucose level ([3]; 6 hours after treatment, day 7): 13.8 ± 0.4 mM
Glucose level ([3]; 6 hours after treatment, day 11): 15.7 ± 0.4 mM
Glucose level ([3]; 6 hours after treatment, day 14): 17.5 ± 0.4 mM
Glucose level ([3]; blood 6 hours after treatment, day 1): 9.3 ± 0.4 mM
Blood glucose ([4]; 4.5-mg/kg daily 13 days, day 14 s.c. 45 min prior to glucose 3-g/kg i.p., 0 min): 10.7 ± 0.2 mM
Blood glucose ([4]; 4.5-mg/kg daily 13 days, day 14 s.c. 6 hours prior to glucose 3-g/kg i.p., 0 min): 17.8 ± 0.3 mM
Blood glucose ([4]; s.c. 45 min prior to glucose, 30 min): 11.9 ± 0.4 mM
Blood glucose ([4]; s.c. 45 min prior to glucose, 60 min): 11.4 ± 0.3 mM
Blood glucose ([4]; s.c. 45 min prior to glucose, 120 min): 11.0 ± 0.3 mM
Blood glucose ([4]; s.c. 45 min prior to glucose, 180 min): 10.9 ± 0.3 mM
Blood glucose ([4]; s.c. 6 hours prior to glucose, 30 min): 20.7 ± 0.2 mM
Blood glucose ([4]; s.c. 6 hours prior to glucose, 60 min): 20.2 ± 0.2 mM
Blood glucose ([4]; s.c. 6 hours prior to glucose, 120 min): 19.6 ± 0.2 mM
Blood glucose ([4]; s.c. 6 hours prior to glucose, 180 min): 18.9 ± 0.3 mM
